Literature values, collected in patent US20110301091A1, “COMPOSITIONS AND METHODS FOR REDUCING THE SIGNS OF AGING OF THE SKIN” (priority 2008, published 2011).

Experiments:
photoaged skin = details: topical application
dermal aging = details: animal studies; mechanism of reducing oxidative stress and apoptosis
wrinkle formation = details: clinical study
[1] = tested on: UV-irradiated human fibroblasts
skin characteristics = details: in vivo
photoaging = details: topical application of folic acid and creatine
MMP-1 = details: human keratinocytes; via ERK and AP-1 inhibition
[2] = tested on: UV-induced ceramide production; details: free radical scavenger
[3] = tested on: heparan-sulfate PGs (HS-PGs); details: organotypical model of corticosteroid atrophic human skin

Q: Which “skin barrier, fibroblast count and function” value (photoaged skin) does the source give for CCCCCCCC(=O)C(CCCCCC)C(=O)NC(CO)CO (stereo not drawn) [K6PC-5] here?
A: Its value is “improving skin barrier and increasing fibroblast count and function”.

Q: With growth hormone as the compound, how does the dermal aging (dermal aging) read?
A: The dermal aging was “slow down dermal aging”.

Q: For Ziyuglycoside, which “expression of type I collagen” value (type I collagen) is on record?
A: The value was “increased the expression of type I collagen in a dose-dependent manner”.

Q: And the wrinkle formation (wrinkle formation)?
A: The wrinkle formation was “decrease wrinkle formation”.

Q: With COc1cc(O)c(C(=O)[C@@H]2[C@H](CC=C(C)C)C(C)=CC[C@H]2c2ccccc2)c(O)c1 [Panduratin A] as the compound, how does the “matrix metalloproteinase (MMP) I synthesis” value [1] read?
A: The value was “decreased”.

Q: And the “type I procollagen synthesis” value [1]?
A: The value was “increased”.

Q: Which “effects on skin characteristics” value (skin characteristics) does the source give for C[C@]12CC[C@H](O)CC1=CC[C@@H]1[C@@H]2CC[C@]2(C)C(=O)CC[C@@H]12 [Dehydroepiandrosterone (DHEA), Dehydroepiandrosterone] here?
A: Its value is “beneficial effects on skin characteristics”.

Q: With CN(CC(=O)O)C(=N)N [creatine] as the compound, how does the photoaging (photoaging) read?
A: Its photoaging is “improved photoaging”.

Q: Which MMP-1 inhibition (MMP-1) does the source give for Triphlorethol-A here?
A: Its MMP-1 inhibition is “inhibition of MMP-1”.

Q: Which epigenetic patterns (epigenetic patterns) does the source give for lunasin here?
A: The epigenetic patterns was “modify epigenetic patterns”.

Q: For Vitamin E, which UV-induced ceramide production [2] is on record?
A: The UV-induced ceramide production was “inhibited”.

Q: For COc1ccc2[nH]cc(CCNC(C)=O)c2c1 [melatonin], which dermal aging (dermal aging) is on record?
A: The dermal aging was “slow down dermal aging”.

Q: For C-Xyloside, which “expression of heparan-sulfate PGs (HS-PGs)” value [3] is on record?
A: The value was “improved expression of heparan-sulfate PGs”.

Q: Which photoaging (photoaging) does the source give for Nc1nc2ncc(CNc3ccc(C(=O)N[C@@H](CCC(=O)O)C(=O)O)cc3)nc2c(=O)[nH]1 [folic acid] here?
A: The photoaging was “improved photoaging”.

Q: Which aging and lifespan (laboratory animals) does the source give for Oc1ccc(C=Cc2cc(O)cc(O)c2)cc1 [Resveratrol] here?
A: The aging and lifespan was “slow down aging and extend the lifespan”.
